Results taken from ChEMBL document CHEMBL1144607, “Novel hydroxamic acid-related phosphinates: inhibition of neutral aminopeptidase N (APN)” (Bioorg Med Chem Lett, 2007).
Active and inactive are the calls of the source. No cut-off for these calls is given here.

Experiments:
Aminopeptidase N [1] = biological target: T1, Aminopeptidase N (Homo sapiens, UniProt P15144); assay: Inhibition of APN
Aminopeptidase N [2] = biological target: T1, Aminopeptidase N; assay: Inhibition of APN at <300 uM

T1 sequence (P15144 whole entry): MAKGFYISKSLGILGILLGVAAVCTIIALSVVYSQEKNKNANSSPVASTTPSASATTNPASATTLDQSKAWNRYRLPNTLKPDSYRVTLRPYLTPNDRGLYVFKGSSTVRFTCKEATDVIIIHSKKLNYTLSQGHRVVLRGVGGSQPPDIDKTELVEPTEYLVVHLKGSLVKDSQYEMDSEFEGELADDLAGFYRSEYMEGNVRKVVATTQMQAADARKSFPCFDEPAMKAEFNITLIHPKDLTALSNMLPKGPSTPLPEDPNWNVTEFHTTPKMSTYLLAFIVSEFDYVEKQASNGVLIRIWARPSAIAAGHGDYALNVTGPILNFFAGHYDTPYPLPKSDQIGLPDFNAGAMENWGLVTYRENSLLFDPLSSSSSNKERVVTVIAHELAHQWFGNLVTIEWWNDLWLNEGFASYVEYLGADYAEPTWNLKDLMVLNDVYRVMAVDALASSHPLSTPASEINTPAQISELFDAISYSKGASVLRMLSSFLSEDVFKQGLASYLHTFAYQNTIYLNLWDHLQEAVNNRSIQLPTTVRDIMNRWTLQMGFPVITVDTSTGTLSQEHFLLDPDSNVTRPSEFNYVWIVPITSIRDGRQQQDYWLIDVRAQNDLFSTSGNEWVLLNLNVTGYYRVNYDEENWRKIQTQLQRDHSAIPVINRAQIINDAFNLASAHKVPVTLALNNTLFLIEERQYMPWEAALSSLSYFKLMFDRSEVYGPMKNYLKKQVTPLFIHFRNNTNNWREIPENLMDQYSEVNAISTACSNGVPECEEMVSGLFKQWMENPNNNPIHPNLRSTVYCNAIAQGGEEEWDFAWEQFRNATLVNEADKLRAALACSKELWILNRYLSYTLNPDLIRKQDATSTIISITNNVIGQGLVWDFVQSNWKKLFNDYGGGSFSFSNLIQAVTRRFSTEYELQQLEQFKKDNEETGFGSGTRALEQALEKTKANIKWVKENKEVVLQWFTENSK

Compound	IC50 (Aminopeptidase N [1]) [µM]	Activity (Aminopeptidase N [2])
CC(C)C(N)P(=O)(O)C(=O)Nc1ccccc1 (centres undefined)	160	
CC(C)CC(N)P(=O)(O)C(C)N (centres undefined)	155	
CCNC(=O)P(=O)(O)C(N)C(C)C (centres undefined)		inactive
CCCCCNC(=O)P(=O)(O)C(N)Cc1ccccc1 (centres undefined)		inactive
